In patent US12351651B2, “Polypeptide for repairing mucosal damage or skin wound and use thereof” (Sichuan Gooddoctor Panxi Pharmaceutical Co., Ltd., priority 2020, dated 2025):
Several values for one entry are separate records, joined by “and”; a condition that tells them apart may be missing. Identical values can stand only once. Marks after values point to notes of the source that are not given here. No end group written: not given here.

Legend:
[1] = system: ethanol-induced gastric ulcer model in mice; assay: Anti-ulcer activity of single administration in ethanol-induced model in mice; type: in vivo, C57BL/6 mice; conditions: single administration by gavage, 0.2 mg/kg, 1 h before absolute ethanol; relative to compound of SEQ ID NO: 1
Description: 1. Experimental animal: SPF grade C57BL/6 mice, from Chengdu Yaokang Shengwu Keji Youxian Gongsi, animal license number: SCXK (Chuan) 2020-034.
After adaptive feeding, all the animals were fasted for 24 h with free access to water after administration one day before the experiment. Before modeling, the experimental mice were randomly divided into groups: blank group (5 mice), model group (10 mice), and treatment groups (10 mice per group). Except for the blank group and the model group, which were given sterile water by gavage, the treatment groups were administered with different test compounds by gavage at a dose of 0.2 mg/kg, respectively. One hour after administration, the mice received 0.9 ml/kg absolute ethanol by oral gavage for modeling. After 1 h, the animals were sacrificed by cervical dislocation, the gastric cardia was ligated, the pylorus was occluded, and the whole stomach was removed. 1 mL of 1% formaldehyde solution was injected into the gastric lumen, the cardia was ligated, and the stomach was taken out and immediately immersed in 1% formaldehyde solution. After 30 min, the stomach tissue was taken out and cut open along the greater curvature. The content of the stomach was rinsed off with normal saline, the injury of gastric mucosa in mice were observed and measured after being laid flat, and the ulcer index and ulcer inhibition rate were calculated.
Calculation method for ulcer index: If the length of cord-like injury was greater than 1 mm, the length thereof was measured, with 1 point per millimeter; if the width thereof was greater than 1 mm, the score thereof was doubled according to the number of millimeters of the width; and if the length was less than 1 mm, a score of 0.5 was given, and the scores were added to obtain the ulcer index of the animal. • Ulcer inhibition rate=(ulcer index of model group-ulcer index of treatment group)/ulcer index of model group*100%; and • Relative ulcer inhibition rate=(ulcer inhibition rate of test compound)/(ulcer inhibition rate of Compound 1).

[2] = system: aspirin-induced gastric ulcer in rats; assay: Aspirin-induced gastric ulcer in rats; type: in vivo, SD rats
Description: Method: After adaptive feeding, SD rats were divided into three groups (10 rats in each group) by Excel-based complete randomization, namely, a control group, a model group, and a the compound of SEQ ID NO: 1 (0.3 mg/kg) group. After the animals were grouped, they were given corresponding treatments (the control group and the model group were given the same volume of purified water, and the SEQ ID NO: 1 group was given corresponding drug treatment) once a day for 8 consecutive days. On the 7th day after administration, all the animals were fasted for 24 h with free access to water. On the 8th day, except for the control group, the rats in the SEQ ID NO: 1 group and the model group were orally given 250 mg/kg aspirin solution for modeling 30 min after compound administration (or given water). 4 h after modeling, the animals were sacrificed, the cardia was ligated, the pylorus was occluded, and the whole stomach was removed. 8 mL of 1% formaldehyde solution was injected into the gastric lumen, the pylorus was ligated, and the stomach was taken out and immediately immersed in 1% formaldehyde solution for fixation. After 30 min, the stomach was cut open along the greater curvature, the content of the stomach was cleaned off with normal saline, and after the stomach was laid flat, the stomach was observed, and panoramic photos were taken to measure the ulcer area.

[3] = system: ethanol-induced gastric ulcer in mice; assay: Ethanol-induced gastric ulcer in mice, administration once a day for 8 days; type: in vivo, C57BL/6 mice; conditions: absolute ethanol, gavage once a day for 8 days, SEQ ID NO: 1 1 mg/kg, teprenone 160 mg/kg, n = 10, x ± s
Description: 1. Experimental animal: SPF grade C57BL/6 mice, from Chengdu Yaokang Biotechnology Ltd, animal license number: SCXK (Chuan) 2020-034.
2. Method: After adaptive feeding, the mice were randomly divided into four groups with 10 mice in each group, namely, control group (normal group), model group (modeling with absolute ethanol), positive drug group (teprenone 160 mg/kg) and SEQ ID NO: 1 group (1 mg/kg). After the animals were grouped, the control group and model group were treated with pure water, and the other dosed groups were treated with the corresponding drugs once a day for 8 consecutive days. On the 7th day, after treatment, all the animals were fasted for 24 h with free access to water. […] The stomach was cut open along the greater curvature, the content of the stomach was cleaned off with normal saline, and the ulcer index was calculated after being laid flat. Calculation method for ulcer index: If the length of cord-like injury was greater than 1 mm, the length thereof was measured, with 1 point per millimeter; if the width thereof was greater than 1 mm, the score thereof was doubled according to the number of millimeters of the width; and if the length was less than 1 mm, a score of 0.5 was given, and the scores were added up to obtain the ulcer index of the animal.

[4] = Gastric and intestinal stability test of polypeptide samples; type: in vitro ADME; conditions: 37° C., 1 hour, HPLC peak area; for W Retained %: artificial gastric juice (W); for X Retained %: artificial intestinal juice (X); for O Retained %: hydrogen peroxide solution (O); for I Retained %: povidone-iodine solution (I)
Description: Method: 1 mg of each of the samples to be tested (Compounds 1, 26, 27 and 28 and EGF) were taken and dissolved in 1 ml of water. 100 ul of sample solution was taken, 900 ul of water was added, and they were uniformly mixed, as a control solution. 100 ul of each sample solution was taken, and 900 ul of artificial gastric juice (W), artificial intestinal juice (X), povidone-iodine solution (I), and hydrogen peroxide solution (O) were respectively added. The solution was placed in a constant temperature water bath at 37° C. for 1 hour, and left to stand for cooling and filtering, as a test solution. The peak areas of the sample before and after treatment were respectively detected by high performance liquid chromatography, and the experimental results were compared based on the peak areas of the samples. The original solution without any treatment after being diluted with water was used as a control, and the changes in the peak areas (contents) of test solutions at corresponding positions were compared and counted.

[5] = system: subintestinal vascular branches of zebrafish; assay: Repair of simvastatin-induced vascular injury in zebrafish; type: in vivo; conditions: 500 ng/fish intravenous injection, 28° C., 2 days
From the text: Method: The blood vessels of transgenic vascular green fluorescent zebrafish (Fli-1) were labeled by green fluorescent protein, which was clearly visible under a fluorescence microscope (FIG. 9, the dotted frame in FIG. 9 (yellow in the original picture) was the intestinal blood vessel at the analysis site, and the arrow (white in the original picture) pointed to subintestinal vascular branches), and it became a model organism for observing vascular change. Zebrafish Fli-1 was naturally mated in pairs for breeding. Zebrafish Fli-1 was randomly selected and placed in a 6-well plate one day after fertilization, with 30 fish per well (experimental group). The zebrafish in the normal control group were treated with standard dilution water, and each of the other experimental groups was induced with aqueous simvastatin for 3 hours to establish a zebrafish microvascular loss model. After 3 hours, the aqueous solutions in all the groups were replaced with standard dilution water, and simvastatin induction was terminated. […] Ten zebrafish in each group were randomly selected and photographed under the fluorescence microscope. NIS-Elements D 3.20 advanced image processing software was used for analysis and data collection, and the number of subintestinal vascular branches was analyzed.

Substance	Anti-ulcer activity (mean relative ulcer inhibition rate) [1]	also measured
PAAEPVPLIKQD [SEQ ID NO: 64]	+ (relative ulcer inhibition rate 0.3-0.6, denoted as “+”)	
PAAEPVPLVKND [SEQ ID NO: 58]	/ (0< relative ulcer inhibition rate <0.3, denoted as “/” (very low activity))	
SEQ ID NO. 1 (PAAEPVPLVKQD)		Ulcer area ([2]; rats, 0.3 mg/kg gavage once a day for 8 days, aspirin 250 mg/kg): 20.55 ± 10.45** mm^2
AEPVPL [SEQ ID NO: 30]	+++ (relative ulcer inhibition rate 0.9-1.20, denoted as “+++”)	
teprenone		Ulcer index [3]: 13.42 ± 7.61
AEPVPLVKQD [SEQ ID NO: 27]	+++ (relative ulcer inhibition rate 0.9-1.20, denoted as “+++”)	W Retained % [4]: 100% and 97%; X Retained % [4]: 0%; O Retained % [4]: 100% and 101%; I Retained % [4]: 100%
PAGEPVPLVKQD [SEQ ID NO: 48]	++ (relative ulcer inhibition rate 0.6-0.9, denoted as “++”)	
PVPLVKQD [SEQ ID NO: 28]	+++ (relative ulcer inhibition rate 0.9-1.20, denoted as “+++”)	W Retained % [4]: 100% and 96%; X Retained % [4]: 0%; O Retained % [4]: 100% and 99%; I Retained % [4]: 100% and 99%
Pro-Val-Pro-Leu (PVPL) [SEQ ID NO: 32]	+++ (relative ulcer inhibition rate 0.9-1.20, denoted as “+++”)	
PAAEPVPLVKED [SEQ ID NO: 57]	++ (relative ulcer inhibition rate 0.6-0.9, denoted as “++”)	
Ala-Glu-Pro-Val (AEPV) [SEQ ID NO: 45]	− (relative ulcer inhibition rate <0, denoted as “−”)	
PAAEPVPFVKQD [SEQ ID NO: 12]	/ (0< relative ulcer inhibition rate <0.3, denoted as “/” (very low activity))	
PAAVPVPLVKQD [SEQ ID NO: 67]	+ (relative ulcer inhibition rate 0.3-0.6, denoted as “+”)	
PAAEPVPL [SEQ ID NO: 26]	+++ (relative ulcer inhibition rate 0.9-1.20, denoted as “+++”)	subintestinal microvascular loss caused by simvastatin / number of subintestinal vascular branches [5]: significantly reverse; W Retained % [4]: 100%; O Retained % [4]: 100% and 102%; I Retained % [4]: 100% and 101%
PAAEGVGLVKQD [SEQ ID NO: 8]	+ (relative ulcer inhibition rate 0.3-0.6, denoted as “+”)	
Val-Pro-Leu-Val (VPLV) [SEQ ID NO: 73]	++ (relative ulcer inhibition rate 0.6-0.9, denoted as “++”)	
PAAEPVPLVK [SEQ ID NO: 3]	+++ (relative ulcer inhibition rate 0.9-1.20, denoted as “+++”)	
PAAEPVPLVKQD [SEQ ID NO: 1, Pro-Ala-Ala-Glu-Pro-Val-Pro-Leu-Val-Lys-Gln-Asp]		weight change ([2]; 0.3 mg/kg oral gavage once a day for 8 consecutive days): no obvious effects
Ala-Glu-Pro-Val-Pro (AEPVP) [SEQ ID NO: 44]	+ (relative ulcer inhibition rate 0.3-0.6, denoted as “+”)	
PAAEPVPLVKQE [SEQ ID NO: 60]	+ (relative ulcer inhibition rate 0.3-0.6, denoted as “+”)	
PIAEPVPLVKQD [SEQ ID NO: 56]	− (relative ulcer inhibition rate <0, denoted as “−”)	
EPVPLVKQD [SEQ ID NO: 38]	+++ (relative ulcer inhibition rate 0.9-1.20, denoted as “+++”)	
Pro-Ala-Ala-Glu-Pro (PAAEP) [SEQ ID NO: 35]	+ (relative ulcer inhibition rate 0.3-0.6, denoted as “+”)	
PAAEPVPLVKQN [SEQ ID NO: 50]	/ (0< relative ulcer inhibition rate <0.3, denoted as “/” (very low activity))	
Glu-Pro-Val-Pro-Leu (EPVPL) [SEQ ID NO: 31]	+++ (relative ulcer inhibition rate 0.9-1.20, denoted as “+++”)	
PAAEPV [SEQ ID NO: 34]	/ (0< relative ulcer inhibition rate <0.3, denoted as “/” (very low activity))	
PAADPVPLVKQD [SEQ ID NO: 11]	++ (relative ulcer inhibition rate 0.6-0.9, denoted as “++”)	
PAAQPVPLVKQD [SEQ ID NO: 10]	++++ (Relative ulcer inhibition rate >1.20, denoted as “++++”)	
